The subject of series [1] is experienced drug users. Conditions: cited from earlier work.
Series [2] concerns C57Bl/6 mice. Kind of series: Cisplatin CIPN model, von Frey test. Type of series: in vivo, mouse. On the procedure: Cisplatin, a platinum-based chemotherapy agent has been used to reduce pain thresholds in a model of CIPN. Effects of acute (single higher dose) or sub-chronic (7 days repeated lower dose) 2C-B on pain thresholds were investigated in cisplatin-treated animals compared with vehicle or cisplatin-treated controls.
Methods: Male C57Bl/6 mice aged 12-16 weeks were used. Cisplatin (2.5 mg/kg) or vehicle was administered on days 1-5 and 11-15.
Vehicle, sub-chronic 2C-B (5 mg/kg once daily days 17-23) or acute 2C-B (20 mg/kg once on day 17) was then administered IP (N=16-18/group). VonFrey testing took place on day 17 (30 min post-dose) and days 21 and 24 (pre-dose) to monitor the effects of 2C-B in cisplatin treated animals, compared with animals receiving cisplatin+vehicle or vehicle+vehicle.
For von Frey measurements, animals were placed into wire bottom cubicles with opaque Plexiglas walls, allowing access to the underside of their paws. Animals were habituated to this environment for at least 30 minutes before the start of the von Frey filament application. Static allodynia was measured using Semmes-Weinstein von Frey filaments (Stoelting, Wood Dale, IL). Mechanical allodynia was tested by touching the plantar surface of the animals' right and left hind paws with von Frey filaments which deliver a calibrated amount of force (0.07, 0.16, 0.4, 0.6. 1.0, 2.0, 4.0, 6.0 g). […]

Series [3] concerns Sprague Dawley rats. Kind of series: Forced Swim Test (FST). Type of series: in vivo, rat. From the text: The Forced Swim Test (FST) is a classic, and the most used preclinical behavioral assay to screen compounds with antidepressant-like activity and has high predictive and face validity (Porsolt et al. (1977) Nature 266:730; Borsini and Meli (1988) Psychopharmacology 94:147). The premise of the FST is that when rats are placed into a cylinder filled with water, they will initially try to escape, but over time will become immobile. This increased immobility reflects behavioral despair, modeling a depressive-like state.
Forced Swim Test (FST): In the FST trial, rats were placed in a circular plexiglass container filled with water, with no means of escape. Water temperature was maintained at 22-25° C. and changed for every animal. After an acclimation period, rats were timed for inactivity (failure to struggle), activity, swim time and climbing time. Day 1 consisted of a 15 min acclimation trial, and Day 2 (24 h later) consisted of the 5 min test. A time sampling procedure was employed where animals were observed every 5 sec and scored for immobility, swimming, or climbing. Fluoxetine (10 mg/kg, IP, Sigma Aldrich) or 0.9% sterile saline vehicle (vehicle 3X group) were administered 23.5, 5, and 1 h before testing in the FST. […] The experimenter was blinded to treatment.
Forced Swim Test: In the FST trial, rats were placed in a circular plexiglass container filled with water, with no means of escape. Water temperature was maintained at 22-25° C. and changed for every animal. After an acclimation period, rats were timed for inactivity (failure to struggle), activity, swim time and climbing time. Day 1 consisted of a 15 min acclimation trial, and Day 2 (24 h later) consisted of the 5 min test. A time sampling procedure was employed where animals were observed every 5 sec and scored for immobility, swimming, or climbing. Fluoxetine (10 mg/kg, IP, Sigma Aldrich) or 0.9% sterile saline vehicle (vehicle 3X group) were administered 23.5, 5, and 1 h before testing in the FST. 2C-B (2.5, 10, or 20 mg/kg, IP, Cayman Chemical) or 0.9% saline vehicle (vehicle 1X group) were administered 30 min prior to FST testing. The experimenter was blinded to treatment.
Drug Treatment: Fluoxetine (10 mg/kg, IP, Sigma Aldrich) or 0.9% sterile saline vehicle were administered 23.5, 5, and 1 h before testing in the FST. […] Control animals received fluoxetine alone, methylone alone, or saline vehicle.
Forced Swim Test: In the FST trial, rats were placed in a circular plexiglass container filled with water, with no means of escape. Water temperature was maintained at 22-25° C. and changed for every animal. After an acclimation period, rats were timed for inactivity (failure to struggle), activity, swim time and climbing time. The experimenter and scorer were blind to treatment group. Day 1 consisted of a 15 min acclimation trial, and Day 2 (24 h later) consisted of the 5 min test. A time sampling procedure was employed where animals were observed every 5 sec and scored for immobility, swimming, or climbing.
The FST was performed and scored by an experimenter blind to treatment group according to standard protocols and based on a “modified FST” procedure (Slattery and Cryan (2012) Nat Protoc, 7:1009). Briefly, rats were placed in a circular plexiglass container (29.2 cm diameter, 49.5 cm height) filled with water to a depth of 30 cm so rats could not support themselves by touching the bottom of the tank. Water was maintained at 22-25° C. and was changed for every animal. Day 1 (Training) consisted of a 15 min acclimation trial, and Day 2 (Testing, 24 h later) consisted of the 5 min test. A time sampling procedure was employed where animals were observed every 5 seconds for the duration of the test session (60 counts or 5 minutes) and scored for immobility (defined as the failure to struggle), swimming (defined as a circular movement around the tank), or climbing (defined as an upwards escape behavior). […]

Series [4] concerns Sprague Dawley rats. The note with it: previous literature reports (Hibicke 2020; Yang 2013; Tizabi 2012); cited from earlier work.
In series [5] the test system is C57BL/6J mice. Kind of series: Fear extinction paradigm (PTSD mouse model). The note with it: MBDB 5 mg/kg IP, day 2. Type of series: in vivo. From the text:
Effective PTSD treatments facilitate the disassociation between a traumatic memory and the patient's fear response, making cues for the traumatic memory evoke less of a fear response. This is modeled in the mouse fear extinction paradigm (see FIG. 9A) which takes place over 3 days. On day 1 (fear conditioning), mice are trained to acquire a “traumatic memory,” namely associating the conditioned stimulus (CS, tone) to the unconditioned stimulus (US, foot shock). On day 2 (extinction training), they are trained to forget the traumatic memory association by presenting the CS 6 times (with no US) in a novel environment. On day 3 (extinction recall), the mice are “asked” if that tone (CS) still elicits a fearful response, as measured by the time spent freezing when the tone is presented. Less time freezing means better extinction recall. Drugs that improve extinction recall reduce freezing time on day 3, and, therefore, show potential as a PTSD treatment.
Methods: Cued fear conditioning was performed in C57BL/6J mice. On day 1, animals were placed in the chambers and presented with a training session (CS-US pairing). The training consisted of a 2-minute habituation followed by a 30-second, 80 dB tone; during the last 2 seconds of the tone animals received a 1 mA foot shock. This US-CS procedure occurred once for a total of one paired presentation of tone and shock. Freezing behavior (immobility) was recorded in 5-10-see intervals during the session. Percent baseline freezing behavior was determined in the 2-minute habituation period. On day 3, animals were placed in context B, in which tactile and odor cues differed from context A. Following a 2 minute acclimation period animals received 4×30 sec presentations of the CS (tone) in the absence of the US (footshock), with a 45 sec interval between presentations. Freezing was recorded in 5-10-see intervals to measure baseline freezing response to the altered context, and freezing response to each tone cue presentation. […] On day 4 (Post-Extinction Testing in Drug-Free State), animals were placed in Context B. Following a 2 min acclimation period, animals received 4×30 sec extinction tone duration presentations of the CS (tone) in the absence of the US (footshock), with a 45 sec interval between presentations. Freezing was recorded in 5-10-see intervals to measure baseline freezing response to the altered context, and freezing response to each tone cue presentation.

In series [6] the test system is serotonergic terminals in the cortex and hippocampus. Conditions: (±)-MBDB.HCl 25 mg/kg IP every 12 hours for 4 days, 2 weeks post-treatment; cited from earlier work.
The target of series [7] is T1, Human serotonin 5HT2B receptor (Homo sapiens, UniProt P41595).
T1 construct: host or cells: receptor-expressing membranes
T1 sequence (P41595 whole entry): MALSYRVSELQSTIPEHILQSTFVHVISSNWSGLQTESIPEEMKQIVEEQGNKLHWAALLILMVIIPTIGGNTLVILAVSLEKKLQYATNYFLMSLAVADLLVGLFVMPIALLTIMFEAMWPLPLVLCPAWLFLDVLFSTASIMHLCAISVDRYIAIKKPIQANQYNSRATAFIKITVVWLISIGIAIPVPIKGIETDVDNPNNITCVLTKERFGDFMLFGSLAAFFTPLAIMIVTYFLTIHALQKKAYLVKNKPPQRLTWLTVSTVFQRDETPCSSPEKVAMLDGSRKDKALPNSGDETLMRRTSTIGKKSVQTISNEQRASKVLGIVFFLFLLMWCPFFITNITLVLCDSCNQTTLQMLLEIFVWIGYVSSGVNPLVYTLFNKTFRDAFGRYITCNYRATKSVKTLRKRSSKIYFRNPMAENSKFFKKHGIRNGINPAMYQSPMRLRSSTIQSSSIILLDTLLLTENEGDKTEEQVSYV
Nature of the series: 5HT2B competitive radioligand binding. The note with it: ratio of Ki values. On the procedure:
Human serotonin 5HT2B receptor membrane preparations were divided into aliquots. On the day of the assay, membranes were diluted at 1:200 in incubation buffer. […] To each well was added 150 μL membrane preparation, 50 μL test compound, non-specific compound, or buffer alone, as well as 50 μL radioligand. The plate was incubated at 35° C. for 90 minutes with gentle agitation. […] For each concentration of drug, non-specific binding was subtracted from total binding to give specific binding. […] Ki was subsequently calculated using the ChengPrusoff equation.

Here are results for six molecules from US20250332139A1, “PS[…] AND THEIR USE FOR TREATING […] AND NE[…] DISORDERS” (Transcend Therapeutics, Inc., priority 2021, published 2025).

Where two headings read alike, the source gives them in different places.

As for `COc1cc(CCN)c(OC)cc1Br` [2C-B, 4-Bromo-2,5-dimethoxyphenethylamine], the adverse effects result in series [1] (self-administered 2C-B, 10 to 20 mg) was “no serious adverse effects”. Besides, the “effect of repeated doses” value in series [2] (5 mg/kg 2C-B once daily days 17-23) is given as “sustained beneficial effect”. Further, in series [2] (single dose 5 or 20 mg/kg IP, within 30 min, day 17), the “pain thresholds in cisplatin-treated animals” value is on record as “significantly increased”. For the same molecule, the climbing result in series [3] (2C-B high-dose group (20 mg/kg IP)) is “significantly decreased”. Moreover, the swimming entry in series [3] (2C-B single dose IP 30 min before test) is given as “significant increase in swimming”.

`CCN(CC)C(=O)[C@@H]1C=C2c3cccc4[nH]cc(c34)C[C@H]2N(C)C1` [LSD, lysergic acid-N,N-diethylamide]: the reduction in immobility in series [4] is 38%.

In the case of `CCC(Cc1ccc2c(c1)OCO2)NC` (centres unmarked) [MBDB, N-methyl-1-(1,3-benzodioxol-5-yl)-2-aminobutane], the adverse effects result in series [1] (self-administered MBDB, 100 to 300 mg) is reported as “no serious adverse effects”. Also, in series [5], the “extinction acquisition, first trial of extinction training” value is “improved extinction acquisition” and the locomotor activity entry is reported as “small, but significant increase in locomotor activity”. Also, in series [6], the “serotonergic terminals destroyed in the cortex and hippocampus” value was 55-60%. In addition, in series [3] (MBDB 5-30 mg/kg IP, 30 min before test), the immobility result is listed as “significantly reduced immobility”.

Turning to `CC(N)Cc1ccc2c(c1)OCO2` (centres unmarked) [MDA], in series [7], the “times greater affinity for the 5HT2B receptor compared with methylone” value is given as 37 times.

Turning to `CNCCC(Oc1ccc(C(F)(F)F)cc1)c1ccccc1` (centres unmarked) [fluoxetine, reference compound], in series [3] (Example 8, fluoxetine 10 mg/kg IP x3), the swimming behavior result is listed as “significantly increased swimming behavior”.

In the case of `CN(C)CCc1c[nH]c2cccc(OP(=O)(O)O)c12` [psilocybin], the reduction in immobility in series [4] is listed as 67%.
